{
  "source": "EPA's ToxValDB 9.5",
  "key": {"[1]": {"system": "Cavia porcellus", "conditions": "acute, Guinea Pig; for LD50: dermal"}, "[2]": {"system": "Mus musculus", "conditions": "for LD50: acute"}, "[3]": {"system": "Oryctolagus sp.", "conditions": "for LD50: acute, dermal; for NOAEL: reproduction developmental, duration: 13 days, oral, gavage"}, "[4]": {"system": "Rattus norvegicus", "conditions": "for LD50 / LC50: acute"}, "[5]": {"system": "Rattus norvegicus", "conditions": "subchronic, oral, diet"}, "[6]": {"system": "Rattus norvegicus", "experiment": "LC0; higher = less toxic", "conditions": "acute, inhalation"}, "[7]": {"system": "Chalcophaps sp.", "conditions": "oral"}, "[8]": {"system": "Mus musculus", "conditions": "repeat dose other; oral"}, "[9]": {"system": "Rattus norvegicus", "conditions": "oral"}, "[10]": {"system": "Rattus norvegicus", "conditions": "for NOAEL: oral, gavage, Sprague-Dawley"}, "[11]": {"system": "Rattus norvegicus", "conditions": "Hershberger, oral, gavage, Sprague-Dawley, active + Antiandrogenic + anti-androgenic + PPS delayed"}, "[12]": {"system": "Rattus norvegicus", "conditions": "chronic, oral, diet"}, "[13]": {"system": "Rattus norvegicus", "conditions": "developmental, oral, M, generation: F1"}, "[14]": {"system": "Mus musculus", "conditions": "subchronic, M/F"}, "[15]": {"system": "Mus musculus", "conditions": "subchronic; duration: 90 days; oral; drinking water; M/F; CD1; Hepatic, Other"}, "[16]": {"system": "Mus musculus", "conditions": "subchronic; duration: 90 days; oral; drinking water; M/F; CD1; immunological, hepatic"}, "[17]": {"system": "Mus musculus", "conditions": "subchronic; duration: 13 weeks; inhalation; intermittent; Whole body: Decreased weight"}, "[18]": {"conditions": "reproduction developmental, injection, Intraperitoneal, generation: F1"}, "[19]": {"conditions": "subchronic, duration: 90 days, oral, diet, Fischer 344"}, "[20]": {"conditions": "duration: 13 weeks, M/F, Fischer 344, Body Weight Changes: Body weight gain decrease + Food Consumption: decrease + Hematology: MCH decrease MCV decrease + Blood Chemistry: T-…"}, "[21]": {"conditions": "gavage, Crl:CD(SD), F1: AGD (mm)"}, "[22]": {"conditions": "oral, drinking water, clinical serum chemistry (effects on erythrocytes and reduced humoral immune status)"}, "[23]": {"conditions": "inhalation, reduced body weight"}},
  "note": "“And” between values parts separate entries of the source, which are not always exact repeats. Equal entries are not always repeated.",
  "data": [
    {"smiles": "CCCCC(CC)C(=O)O", "note": "(stereo not drawn) [2-Ethylhexanoic acid]", "values": [
      {"measurement": "LD50", "setting": "[1]", "value": "6300 mg/kg and 5700 mg/kg and 4550 mg/kg"},
      {"measurement": "LD50", "setting": "[1]; occlusive", "value": "6500 mg/kg and ≥ 5000 mg/kg and ≤ 10000 mg/kg"},
      {"measurement": "LC50", "setting": "[1]; inhalation", "value": "> 2.39", "unit": "µg/mL"},
      {"measurement": "LD50", "setting": "[2]; injection, Intraperitoneal", "value": 270, "unit": "mg/kg"},
      {"measurement": "LD50", "setting": "[2]; injection, subcutaneous", "value": 910, "unit": "mg/kg"},
      {"measurement": "NOAEL (% diet)", "setting": "[2]; repeat dose other, oral, diet", "value": 1},
      {"measurement": "NOAEL", "setting": "[2]; reproduction developmental, injection, Intraperitoneal, NMRI, generation: F1", "value": 500, "unit": "mg/kg-day"},
      {"measurement": "LOAEC", "setting": "[2]; [18]", "value": 1730, "unit": "mg/kg-day"},
      {"measurement": "NOAEL", "setting": "[2]; [18]", "value": "≤ 1150", "unit": "mg/kg-day"},
      {"measurement": "NOAEL", "setting": "[2]; short-term, duration: 2 weeks, oral, gavage, F, B6C3F1", "value": 1600, "unit": "mg/kg-day"},
      {"measurement": "NOAEL", "setting": "[2]; short-term, duration: 2 weeks, oral, gavage, M, B6C3F1", "value": 800, "unit": "mg/kg-day"},
      {"measurement": "LD50", "setting": "[3]", "value": 1260, "unit": "mg/kg"},
      {"measurement": "NOAEL", "setting": "[3]; F, New Zealand", "value": 25, "unit": "mg/kg-day"},
      {"measurement": "NOAEL", "setting": "[3]; New Zealand, generation: F1", "value": 250, "unit": "mg/kg-day"},
      {"measurement": "LD50", "setting": "[4]; dermal", "value": "> 2000", "unit": "mg/kg"},
      {"measurement": "LC50", "setting": "[4]; inhalation", "value": "> 0.015", "unit": "µg/mL"},
      {"measurement": "LD50", "setting": "[4]; oral, gavage", "value": "≥ 1600 mg/kg and ≤ 3200 mg/kg"},
      {"measurement": "LD50", "setting": "[4]; oral, gavage, Sprague-Dawley", "value": "≥ 1600 mg/kg and ≤ 3200 mg/kg"},
      {"measurement": "NOAEL", "setting": "[4]; reproduction developmental, duration: 10 days, oral, gavage, F, Fischer 344", "value": 250, "unit": "mg/kg-day"},
      {"measurement": "NOAEL", "setting": "[4]; reproduction developmental, duration: 14 days, oral, drinking water, F, Wistar", "value": 300, "unit": "mg/kg-day"},
      {"measurement": "LOAEL", "setting": "[4]; reproduction developmental, oral, F, Sprague-Dawley", "value": 446, "unit": "mg/kg-day"},
      {"measurement": "NOAEL", "setting": "[4]; reproduction developmental, oral, Sprague-Dawley, generation: F1", "value": 446, "unit": "mg/kg-day"},
      {"measurement": "NOAEL", "setting": "[4]; reproduction developmental, oral, drinking water, Wistar, generation: F0", "value": 300, "unit": "mg/kg-day"},
      {"measurement": "NOAEL", "setting": "[4]; reproduction developmental, oral, drinking water, Wistar, generation: F1", "value": 100, "unit": "mg/kg-day"},
      {"measurement": "NOAEL", "setting": "[4]; reproduction developmental, oral, gavage, Wistar, generation: F1", "value": 900, "unit": "mg/kg-day"},
      {"measurement": "NOAEL", "setting": "[4]; short-term, duration: 2 weeks, oral, gavage, F, Fischer 344", "value": 200, "unit": "mg/kg-day"},
      {"measurement": "NOAEL", "setting": "[4]; short-term, duration: 2 weeks, oral, gavage, M, Fischer 344", "value": 200, "unit": "mg/kg-day"},
      {"measurement": "NOAEL", "setting": "[4]; subchronic, duration: 13 weeks, oral, diet, Fischer 344", "value": 300, "unit": "mg/kg-day"},
      {"measurement": "LOAEL (% diet)", "setting": "[4]; [19]", "value": 0.5},
      {"measurement": "NOAEL (% diet)", "setting": "[4]; [19]", "value": 0.1},
      {"measurement": "NOAEL (% diet)", "setting": "[4]; subchronic, oral, diet, Fischer 344", "value": 5},
      {"measurement": "NOAEL", "setting": "[5]; [20]", "value": 0.5, "unit": "%"},
      {"measurement": "NOEL", "setting": "[5]; [20]", "value": 0.1, "unit": "%"},
      {"measurement": "NOEL", "setting": "[5]; F, F344/CrjBR, Body Weight Changes: decrease + Food Consumption: decrease + Blood Chemistry: Cho increase , Alb increase + Absolute Organ Weight: Liver …", "value": "< 71", "unit": "mg/kg-day"},
      {"measurement": "NOEL", "setting": "[5]; M/F, F344/CrjBR, Body Weight Changes: decrease + Food Consumption: decrease + Blood Chemistry: Cho increase , Alb increase + Absolute Organ Weight: Liver …", "value": "< 0.1", "unit": "%"},
      {"measurement": "LC0", "setting": "[6]", "value": 2.36, "unit": "mg/L"}
    ]},
    {"smiles": "CCCCOC(=O)c1ccccc1C(=O)OCCCC", "note": "[Dibutyl 1,2-benzenedicarboxylate]", "values": [
      {"measurement": "LOAEL", "setting": "[7]", "value": 1.1, "unit": "mg/kg-day"},
      {"measurement": "NOAEL", "setting": "[7]", "value": 0.11, "unit": "mg/kg-day"},
      {"measurement": "LOAEL", "setting": "[8]", "value": 1830, "unit": "mg/kg-day"},
      {"measurement": "NOAEL", "setting": "[8]", "value": 550, "unit": "mg/kg-day"},
      {"measurement": "NOEL", "setting": "[5]; F, Fischer 344, Body Weight Changes: decrease + Food Consumption: decrease + Hematology: Hct decrease, Hgb decrease, RBC decrease, N-RBC increase, MCV …", "value": 177, "unit": "mg/kg-day"},
      {"measurement": "NOEL", "setting": "[5]; M/F, Fischer 344, Body Weight Changes: decrease + Food Consumption: decrease + Hematology: Hct decrease, Hgb decrease, RBC decrease, N-RBC increase, MCV …", "value": "< 240", "unit": "mg/kg-day"},
      {"measurement": "LOAEL", "setting": "[9]; subchronic, M, mortality", "value": 600, "unit": "mg/kg-day"},
      {"measurement": "NOAEL", "setting": "[9]; subchronic, M, mortality", "value": 125, "unit": "mg/kg-day"},
      {"measurement": "NOAEL", "setting": "[10]; developmental, duration: 9 days, M/F, developmental", "value": 50, "unit": "mg/kg-day"},
      {"measurement": "NOEL", "setting": "[11]; duration: 5 days", "value": 500, "unit": "mg/kg-day"},
      {"measurement": "NOEL", "setting": "[11]; duration: 10 days", "value": 500, "unit": "mg/kg-day"},
      {"measurement": "NOAEL", "setting": "[12]; duration: 52 weeks, Whole body: Increased mortality", "value": 125, "unit": "mg/kg-day"},
      {"measurement": "NOEL", "setting": "[13]; Albino, F1: AGD (units not specified)", "value": 50, "unit": "mg/kg-day"},
      {"measurement": "LOEL", "setting": "[13]; [21]", "value": 500, "unit": "mg/kg-day"},
      {"measurement": "NOEL", "setting": "[13]; [21]", "value": 100, "unit": "mg/kg-day"}
    ]},
    {"smiles": "ClCC(Cl)Cl", "note": "[1,1,2-Trichloroethane]", "values": [
      {"measurement": "LOAEL", "setting": "[14]; [22]", "value": 44, "unit": "mg/kg-day"},
      {"measurement": "NOAEL", "setting": "[14]; [22]", "value": 3.9, "unit": "mg/kg-day"},
      {"measurement": "NOAEL", "setting": "[15]", "value": 3.9, "unit": "mg/kg-day"},
      {"measurement": "NOAEL", "setting": "[16]", "value": 3.9, "unit": "mg/kg-day"},
      {"measurement": "LOAEL", "setting": "[10]; acute, duration: 4 hours, inhalation, whole body, M/F, Fischer 344, respiratory", "value": 316, "unit": "mg/m3"},
      {"measurement": "NOAEL", "setting": "[10]; acute, duration: 1 days, M, hepatic", "value": 46, "unit": "mg/kg-day"}
    ]},
    {"smiles": "Cc1cccnc1", "note": "[3-Methylpyridine]", "values": [
      {"measurement": "LD50", "setting": "[3]; occlusive, New Zealand", "value": "≥ 126 mg/kg and ≤ 200 mg/kg"},
      {"measurement": "LC50", "setting": "[4]; inhalation, Sprague-Dawley", "value": "< 11800", "unit": "µg/mL"},
      {"measurement": "LD50", "setting": "[4]; oral, gavage, Fischer 344", "value": 630, "unit": "mg/kg"},
      {"measurement": "LD50", "setting": "[4]; oral, gavage, Sprague-Dawley", "value": 710, "unit": "mg/kg"},
      {"measurement": "LOAEL", "setting": "[4]; short-term, duration: 2 weeks, inhalation, Crl:CD(SD) BR", "value": 1100, "unit": "mg/m3"},
      {"measurement": "LC0", "setting": "[6]; Crl:CD(SD) BR", "value": "≥ 4950 mg/m3 and ≤ 12600 mg/m3"}
    ]},
    {"smiles": "P", "note": "[Phosphine]", "values": [
      {"measurement": "LOAEL", "setting": "[14]; [23]", "value": 6.3, "unit": "mg/m3"},
      {"measurement": "NOAEL", "setting": "[14]; [23]", "value": 1.4, "unit": "mg/m3"},
      {"measurement": "NOEL", "setting": "[9]; chronic, M/F, body weight and clinical parameters", "value": 0.026, "unit": "mg/kg-day"},
      {"measurement": "NOAEL", "setting": "[17]", "value": 1.4, "unit": "mg/m3"},
      {"measurement": "NOEL", "setting": "[12]; duration: 2 years", "value": 0.026, "unit": "mg/kg-day"}
    ]}
  ]
}
